Assay [1] deals with T1, Aurora-A (Homo sapiens, UniProt O14965).
T1 sequence (O14965 1-403): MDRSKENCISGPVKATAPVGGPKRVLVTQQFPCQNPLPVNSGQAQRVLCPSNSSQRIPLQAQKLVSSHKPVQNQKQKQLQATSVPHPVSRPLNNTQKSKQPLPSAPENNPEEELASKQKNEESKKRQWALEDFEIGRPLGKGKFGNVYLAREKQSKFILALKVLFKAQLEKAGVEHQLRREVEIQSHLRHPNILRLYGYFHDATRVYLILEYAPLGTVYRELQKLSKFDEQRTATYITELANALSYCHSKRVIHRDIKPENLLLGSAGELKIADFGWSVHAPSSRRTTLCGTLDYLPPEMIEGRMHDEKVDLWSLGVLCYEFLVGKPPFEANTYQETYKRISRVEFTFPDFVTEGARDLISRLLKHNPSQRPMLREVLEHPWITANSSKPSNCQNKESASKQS
The assay can be described thus: Flashplate Aurora A enzyme inhibition assay. Format: biochemical. The settings on record: Flashplate assay; IC50 range; read-out: Aurora-A inhibition. The gist of the method: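 This is a radiometric Flashplate format: plates were precoated with DTT, and compound (in 2% DMSO) was mixed with kinase buffer (pH 7.5 Tris, MgCl2, NaCl) containing 1 mM MBP, 20 μM ATP and ^33P-ATP. The reaction was started with 250 ng Aurora-A per well and incubated 2 h at RT. It was then stopped by 10 mM sodium pyrophosphate washing, and plates were scintillation-counted.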

Assay [2] deals with T1, Aurora-A. Put plainly: Filterplate assay for Aurora-A inhibitors. The settings on record: read-out: IC50 against Aurora-A. It counts as biochemical. As for the experimental part: Filterplate Assay for Identification and Evaluation of Aurora-A Inhibitors
(§1) 40 μl master mix of kinase buffer (50 mM Tris pH 7.5, 10 mM NaCl, 2.5 mM MgCL2, 1 mM DTT, 20 μM ATP, 0.025 μCi/μl ^33P-ATP, and 100 μg/ml MBP was added to a 96-well plate followed by addition of 250 ng of Aurora-A enzyme per well. The plate was shaken for approximately 2 min on a flat-bed plate shaker (Wellmix, Denley, UK) and incubated for 2 hours at room temperature. The reaction was stopped by the addition of 30 μl of 2% orthophosphoric acid. The reaction mixture was then transferred and filtered on the 96-well Multi-Screening Filter Plate (MATAH0P00, MILLIPORE), pre-treated with 50 μl per well of 0.5% orthophosphoric acid. The plate was washed twice with 200 μl of 0.5% orthophosphoric acid and vacuum-dried. 25 μl of scintillant (Microscint™20, PerkinElmer) per well was added and the plate was shaken for 10 min. Finally, the plate was re-sealed with TopSealA and the signal from the filter-bound component was read on TopCount-NXT™ (PerkinElmer Life Sciences UK Ltd., Hounslow, UK).

Assay [3] concerns the target T2, Aurora-B (Homo sapiens, UniProt Q96GD4). The assay can be described thus: Flashplate assay for Aurora-B inhibitors. It counts as biochemical. The settings on record: read-out: IC50 against Aurora-B. As for the experimental part:
(§2) On this assay 384-well Basic Flashplate® (SMP400E, PerkinElmer) as solid assay platform was used. The plates were coated overnight at 4° C. with […] at 100 μg/ml in PBS buffer and used after being washed twice with PBS. 5 μl of compound in 2% DMSO was added to each well followed by 15 μl master mix of kinase buffer (50 mM Tris pH 7.5, 10 mM NaCl, 2.5 mM MgCl2, 1 mM […], 20 μM ATP, and 0.025 μCi/μl ^33P-ATP). Finally, 250 ng per well of Aurora-A enzyme was added. The plate was shaken for approximately 2 min on a flat-bed plate shaker (Wellmix, Denley, UK) and incubated for 2 hours at room temperature. The reaction was stopped by washing the plate twice on a 16-pin wash (ELX50 BioTek Instruments Ltd., Northstar, Bedford, UK) with 10 mM sodium pyrophosphate. The plate was then read on a TopCount-NX™ (PerkinElmer Life Sciences UK Ltd., Hounslow, UK).
(§3) Flashplate® Assay for Identification and Evaluation of Aurora-B and Aurora-C Inhibitors
(§4) For the determination of the inhibitory activity against Aurora-B or Aurora-C, the same conditions were followed in the assay using Aurora-B or Aurora-C enzymes.

The test system of assay [4] is HCT116 cells. Put plainly: Cell viability assay (MTT) in HCT116 cell line. It counts as cell-based. As to conditions: Homo sapiens, HCT-116, 72 hrs, IC50 range, read-out: HCT116 cell growth inhibition. The gist of the method:
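MTT read-out (4 hrs, 37 °C, DMSO extraction) following 72 hrs of treatment with 0-50 μM Aurora inhibitor. HCT116 cells were plated a day earlier and tested in triplicate; IC50 derived from the curve.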

The target of assay [5] is T3, Aurora-C (Homo sapiens, UniProt Q9UQB9).
T3 sequence (Q9UQB9 1-309): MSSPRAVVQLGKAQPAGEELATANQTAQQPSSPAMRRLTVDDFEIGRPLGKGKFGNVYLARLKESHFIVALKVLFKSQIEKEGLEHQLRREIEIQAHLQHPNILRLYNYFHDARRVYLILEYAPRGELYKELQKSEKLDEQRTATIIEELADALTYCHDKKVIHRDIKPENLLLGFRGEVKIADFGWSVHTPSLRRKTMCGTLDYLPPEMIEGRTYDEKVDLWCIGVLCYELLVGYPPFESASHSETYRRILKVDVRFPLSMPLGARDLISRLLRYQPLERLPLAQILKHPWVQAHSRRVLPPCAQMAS
Put plainly: Flashplate assay for Aurora-C inhibitors. It counts as biochemical. The settings on record: read-out: IC50 against Aurora-C. As for the experimental part: as §2, §3, §4

The target in assay [6] is T2, Aurora-B. Put plainly: Filterplate assay for Aurora-B inhibitors. It counts as biochemical. As to conditions: read-out: IC50 range in respect of Aurora-B. The protocol: as §1
(§5) Filterplate Assay for Identification and Evaluation of Aurora-B and Aurora-C Inhibitors
as §4

Assay [7] deals with T3, Aurora-C. Put plainly: Filterplate assay for Aurora-C inhibitors. It counts as biochemical. The settings on record: read-out: IC50 range in respect of Aurora-C. As for the experimental part: as §1, §5, §4

T2 sequence (Q96GD4 whole entry): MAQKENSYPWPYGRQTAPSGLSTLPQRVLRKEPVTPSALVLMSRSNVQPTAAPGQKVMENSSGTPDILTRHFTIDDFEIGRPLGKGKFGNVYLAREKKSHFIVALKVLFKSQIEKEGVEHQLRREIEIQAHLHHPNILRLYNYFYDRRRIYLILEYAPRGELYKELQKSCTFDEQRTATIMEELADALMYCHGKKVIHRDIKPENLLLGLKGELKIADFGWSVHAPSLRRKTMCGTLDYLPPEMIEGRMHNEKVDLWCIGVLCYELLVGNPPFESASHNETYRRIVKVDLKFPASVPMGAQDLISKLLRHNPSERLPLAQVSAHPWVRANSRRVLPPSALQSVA

`CN(C)c1ccc(-c2nc3c(N4CCN(CC(=O)Nc5nccs5)CC4)c(Cl)cnc3[nH]2)cc1` [Example 1, 2-{4-[6-Chloro-2-(4-dimethylamino-phenyl)-3H-imidazo[4,5-b]pyridin-7-yl]-piperazin-1-yl}-N-thiazol-2-yl-acetamide]: the IC50 was less than 0.5 µM in assay [1]; 0.08 µM in assay [2]; 0.11 µM in assay [3]; less than 0.5 µM in assay [4]; 0.362 µM in assay [5].

Take `CN(C)c1ccc(-c2nc3c(N4CCN(CC(=O)Nc5nccs5)CC4)c(Br)cnc3[nH]2)cc1` [Example 2, 2-{4-[6-Bromo-2-(4-dimethylamino-phenyl)-3H-imidazo[4,5-b]pyridin-7-yl]-piperazin-1-yl}-N-thiazol-2-yl-acetamide]: the IC50 in assay [1] is less than 0.5 µM; in assay [2], 0.07 µM; in assay [3], 0.41 µM; in assay [4] it was less than 0.5 µM; in assay [5], 0.53 µM.

With `Brc1cnc2[nH]c(-c3ccc(CN4CCOCC4)cc3)nc2c1N1CCN(Cc2cccnc2)CC1` [Example 65, 6-Bromo-2-(4-morpholin-4-ylmethyl-phenyl)-7-(4-pyridin-3-ylmethyl-piperazin-1-yl)-3H-imidazo[4,5-b]pyridine], the IC50 in assay [1] is less than 0.5 µM; in assay [4], less than 0.5 µM; in assay [6] it was 0.5 to 2 µM; in assay [7] it was less than 0.5 µM.

With `Cc1cc(CN2CCN(c3c(Br)cnc4[nH]c(-c5ccc(CN6CCOCC6)cc5)nc34)CC2)no1` [Example 75, 6-Bromo-7-[4-(5-methyl-isoxazol-3-ylmethyl)-piperazin-1-yl]-2-(4-morpholin-4-ylmethyl-phenyl)-3H-imidazo[4,5-b]pyridine], the IC50 in assay [1], in assay [4], in assay [6] and in assay [7] was less than 0.5 µM each time.

Consider `Cc1cc(CN2CCN(c3c(Br)cnc4[nH]c(-c5ccc(Cn6cccn6)cc5)nc34)CC2)no1` [Example 77, 6-Bromo-7-[4-(5-methyl-isoxazol-3-ylmethyl)-piperazin-1-yl]-2-(4-pyrazol-1-ylmethyl-phenyl)-3H-imidazo[4,5-b]pyridine], for which the IC50 in assay [1], in assay [4], in assay [6] and in assay [7] was less than 0.5 µM each time.

Take `Brc1cnc2[nH]c(-c3ccc(CN4CCNCC4)cc3)nc2c1N1CCN(Cc2cccnc2)CC1` [Example 106, 6-Bromo-2-(4-(piperazin-1-ylmethyl)phenyl)-7-(4-(pyridin-3-ylmethyl)piperazin-1-yl)-3H-imidazo[4,5-b]pyridine]: the IC50 in assay [1] was less than 0.5 µM; in assay [4], less than 0.5 µM; in assay [6] it was 0.5 to 2 µM; in assay [7], less than 0.5 µM.

As to `Brc1cnc2[nH]c(-c3ccc(CN4CCOCC4)cc3)nc2c1N1CCN(Cc2cncnc2)CC1` [Example 122, 4-(4-(6-Bromo-7-(4-(pyrimidin-5-ylmethyl)piperazin-1-yl)-3H-imidazo[4,5-b]pyridin-2-yl)benzyl)morpholine], the IC50 in assay [1], in assay [4], in assay [6] and in assay [7] was less than 0.5 µM throughout.

`Cc1nc(CN2CCN(c3c(Br)cnc4[nH]c(-c5ccc(Cn6cccn6)cc5)nc34)CC2)cs1` [Example 162, 4-((4-(2-(4-((1H-Pyrazol-1-yl)methyl)phenyl)-6-bromo-3H-imidazo[4,5-b]pyridin-7-yl)piperazin-1-yl)methyl)-2-methylthiazole]: the IC50 in assay [1] was less than 0.5 µM; in assay [4], less than 0.5 µM; in assay [6] it was 0.5 to 2 µM; in assay [7], less than 0.5 µM.

With `Cn1cncc1CN1CCN(c2c(Br)cnc3[nH]c(-c4ccc(CN5CCNCC5)cc4)nc23)CC1` [Example 181, 6-bromo-7-(4-((1-methyl-1H-imidazol-5-yl)methyl)piperazin-1-yl)-2-(4-(piperazin-1-ylmethyl)phenyl)-3H-imidazo[4,5-b]pyridine], the IC50 was less than 0.5 µM in assay [1] and 2 to 50 µM in assay [4].

On to `Cn1cncc1CN1CCN(c2c(Br)cnc3[nH]c(-c4ccc(Cn5cccn5)cc4)nc23)CC1` [Example 182, 2-(4-((1H-Pyrazol-1-yl)methyl)phenyl)-6-bromo-7-(4-((1-methyl-1H-imidazol-5-yl)methyl)piperazin-1-yl)-3H-imidazo[4,5-b]pyridine], for which the IC50 was less than 0.5 µM in assay [1] and 0.5 to 2 µM in assay [4].

Turning to `O=C(CN1CCN(c2c(Cl)cnc3[nH]c(-c4ccc(OCCO)cc4)nc23)CC1)Nc1nccs1` [Example 183, 2-(4-(6-Chloro-2-(4-(2-hydroxyethoxy)phenyl)-3H-imidazo[4,5-b]pyridin-7-yl)piperazin-1-yl)-N-(thiazol-2-yl)acetamide], the results for the IC50 in assay [1] and in assay [4] were less than 0.5 µM and 0.5 to 2 µM, respectively.

Regarding `O=C(CN1CCN(c2c(Cl)cnc3[nH]c(-c4ccc(N5CCC(O)CC5)cc4)nc23)CC1)Nc1nccs1` [Example 184, 2-(4-(6-Chloro-2-(4-(4-hydroxypiperidin-1-yl)phenyl)-3H-imidazo[4,5-b]pyridin-7-yl)piperazin-1-yl)-N-(thiazol-2-yl)acetamide], the IC50 was less than 0.5 µM in assay [1] and 0.5 to 2 µM in assay [4].

Take `O=C(CN1CCN(c2c(Cl)cnc3[nH]c(-c4cccc(OCCN5CCOCC5)c4)nc23)CC1)Nc1nccs1` [Example 185, 2-(4-(6-Chloro-2-(3-(2-morpholinoethoxy)phenyl)-3H-imidazo[4,5-b]pyridin-7-yl)piperazin-1-yl)-N-(thiazol-2-yl)acetamide]: the IC50 in assay [1] and in assay [4] was less than 0.5 µM in each case.

Consider `CN(C)CCOc1ccc(-c2nc3c(N4CCN(CC(=O)Nc5nccs5)CC4)c(Cl)cnc3[nH]2)cc1` [Example 186, 2-(4-(6-Chloro-2-(4-(2-(dimethylamino)ethoxy)phenyl)-3H-imidazo[4,5-b]pyridin-7-yl)piperazin-1-yl)-N-(thiazol-2-yl)acetamide], for which the IC50 in assay [1] and in assay [4] was less than 0.5 µM each time.

As for `O=C(CN1CCN(c2c(Cl)cnc3[nH]c(-c4ccc(N5CCS(=O)(=O)CC5)cc4)nc23)CC1)Nc1nccs1` [Example 187, 2-(4-(6-Chloro-2-(4-(1,1-dioxothiomorpholino)phenyl)-3H-imidazo[4,5-b]pyridin-7-yl)piperazin-1-yl)-N-(thiazol-2-yl)acetamide], the IC50 in assay [1] is less than 0.5 µM; in assay [4], 0.5 to 2 µM.

(Values after patent US8088761B2, “Enzyme inhibitors” (Cancer Research Technology Limited, priority 2005, dated 2012).)
